Assay results from patent publication US20250319015A1, “VACCINIUM MACROCARPON EXTRACT AND ANTI-AGEING COSMETIC EFFECTS THEREOF” (SOCIETE INDUSTRIELLE LIMOUSINE D'APPLICATION BIOLOGIQUE, priority 2021, published 2025).
Like-named read-outs stand apart in the source and are kept apart here.

Experiments:
loricrin = experiment: Loricrin synthesis in reconstructed epidermises (immunohistofluorescence); format: cell-based, human; settings: older reconstructed epidermises, 10 μM Retinol
Procedure: (§1) This study was carried out on normal and older reconstructed epidermises. The epidermal construction was evaluated using a Hematoxylin Eosin (HE) stain and the synthesis of the barrier function markers by immunohistofluorescence. The procedure of the study is described below. […] The epidermides are recovered, fixed, dehydrated, and enclosed in paraffin. Sections (4 μm) are then made using a microtome. […] Viewing is performed using a microscope coupled to an image analysis system. The thickness of the epidermises obtained was measured on the histological sections produced. The rate of the various synthesized markers is proportional to the intensity of green fluorescence present on the reconstructed epidermises. A quantitative analysis of the images was carried out using an image analysis script. The results are expressed in arbitrary units (AU).

claudin-1 = experiment: Claudin-1 synthesis in reconstructed epidermises (immunohistofluorescence); format: cell-based, human; settings: older reconstructed epidermises, 10 μM Retinol
Procedure: as §1

[1] = test system: human keratinocytes from older donors (≥60 years); experiment: Gene expression by quantitative PCR on older human keratinocytes; format: cell-based; settings: 1 μM Retinol
Procedure: (§2) The procedure of the study is described below. The young and older human cells are seeded and incubated at 37° C. […] After several days, the cells are recovered and the total RNA extracted. The RNAs were reverse-transcribed and the complementary DNAs obtained were analyzed by the quantitative PCR technique. The mRNAs of internal reference controls were analyzed in parallel with the mRNAs of the markers involved in the barrier function of the epidermis, in the DEJ and in the dermal matrix. The incorporation of fluorescence is measured continuously using a thermal cycler. The RQ (relative quantification) analysis is performed using software.

MMP-1 = MMP-1 level by ELISA on older human fibroblasts subjected to UVA; format: cell-based; settings: UVA-irradiated older fibroblasts, 1 μM Retinol
Procedure: The older human fibroblasts are seeded and incubated at 37° C. in an atmosphere containing 5% CO2. The irradiations are carried out using a UV lamp with UVA intensities of 10 J/cm2.
The cells are then incubated at 37° C. in an atmosphere containing 5% CO2 for 48 hours.

[2] = test system: healthy Caucasian female volunteers; experiment: Quality of the dermal fibers by LC-OCT, Caucasian volunteers; format: in vivo, human; settings: Retinol 0.075%
Procedure: (§3) This study was carried out on 3 groups of 18 healthy female volunteers, aged 45 to 66 years and presenting with crow's feet wrinkles. Each of the volunteers applied two of the three study formulae to half the face twice-daily in a randomized manner for 42 days.
Acquisitions carried out by LC-OCT after 21 and 42 days of treatment at the cheeks allowed evaluation of the structure of the quality of the fibers.

[3] = test system: healthy Caucasian female volunteers; settings: for Parameter a* (skin redness), change compared to placebo: Retinol 0.075%
Procedure: This study was carried out on 3 groups of 18 healthy, female volunteers, aged 45 to 66 years and presenting with crow's feet wrinkles. Each of the volunteers applied two of the three formulae to half the face twice-daily in a randomized manner for 42 days.

[4] = test system: older human fibroblasts by successive replications; experiment: Gene expression by quantitative PCR on older human fibroblasts; format: cell-based; settings: 1 μM Retinol
Procedure: as §2

[5] = test system: healthy Caucasian female volunteers; experiment: Structure of the dermal-epidermal junction by LC-OCT, Caucasian volunteers; format: in vivo, human; settings: Retinol 0.075%
Procedure: as §3
Acquisitions carried out by LC-OCT after 21 and 42 days of treatment at the cheeks allowed evaluation of the structure of the dermal-epidermal junction

collagen I = experiment: Collagen I network by immunocytology on older human fibroblasts; format: cell-based; settings: 0.1 μM Retinol
Procedure: Immunocytological labeling of collagen I is carried out by fixing and permeabilization using primary antibody I and secondary antibody coupled to a fluorophore. A quantitative analysis was carried out by reading the fluorescence of the various conditions tested using a fluorometer. The intensity of the collagen I network is proportional to the intensity of green fluorescence present. The results are expressed in fluorescence value (AU).

[6] = test system: healthy Caucasian female volunteers; experiment: Anti-wrinkle effect by light projection (crow's feet), Caucasian volunteers; format: in vivo, human; settings: Retinol 0.075%
Procedure: The anti-wrinkle effect is evaluated according to the roughness parameter Sa, evaluated on the crow's feet zone by light projection and on the negative volume, evaluated on the same zone.

Ki-67 = Ki-67 synthesis in reconstructed epidermises (immunohistofluorescence); format: cell-based, human; settings: older reconstructed epidermises, 10 μM Retinol
Procedure: as §1

[7] = test system: older reconstructed epidermises; experiment: Thickness of reconstructed epidermises (hematoxylin eosin stain); format: cell-based, human; settings: 10 μM Retinol
Procedure: This study was carried out on normal and older reconstructed epidermises. The epidermal construction was evaluated using a Hematoxylin Eosin (HE) stain and the synthesis of the barrier function markers by immunohistofluorescence. The procedure of the study is described below. […] The epidermides are recovered, fixed, dehydrated, and enclosed in paraffin. Sections (4 μm) are then made using a microtome. The analysis of the thickness of the reconstructed epidermises is carried out by hematoxylin eosin (HE) stain. Viewing is performed using a microscope coupled to an image analysis system. The thickness of the epidermises obtained was measured on the histological sections produced.

CC1=C(/C=C/C(C)=C/C=C/C(C)=C/CO)C(C)(C)CCC1 [Retinol, retinol]
Ability to restore loricrin synthesis (%) (loricrin): 0%
Synthesis of loricrin (×10^4 AU) (loricrin; 48 hours): 177 ×10^4 AU
Ability to restore claudin-1 synthesis (%) (claudin-1): 0%
Synthesis of claudin-1 (×10^4 AU) (claudin-1; 48 hours): 136 ×10^4 AU
AQP3: Efficacy of retinol/older control (%) [1]: +13%
CD44: Efficacy of retinol/older control (%) [1]: +77%
CLDN1: Efficacy of retinol/older control (%) [1]: −52%
CXCL8: Efficacy of retinol/older control (%) [1]: +189%
DSG: Efficacy of retinol/older control (%) [1]: −99%
FLG: Efficacy of retinol/older control (%) [1]: −76%
HAS3: Efficacy of retinol/older control (%) [1]: +425%
IVL: Efficacy of retinol/older control (%) [1]: +126%
KRT10: Efficacy of retinol/older control (%) [1]: −97%
LOR: Efficacy of retinol/older control (%) [1]: −95%
MKI67: Efficacy of retinol/older control (%) [1]: +44%
S100A7: Efficacy of retinol/older control (%) [1]: +1384%
S100A8: Efficacy of retinol/older control (%) [1]: +23%
S100A9: Efficacy of retinol/older control (%) [1]: +108%
SOD1: Efficacy of retinol/older control (%) [1]: +7%
TGM1: Efficacy of retinol/older control (%) [1]: −31%
AQP3 expression (qPCR) ([1]; young cells control=100): 69
CD44 expression (qPCR) ([1]; young cells control=100): 147
CLDN1 expression (qPCR) ([1]; young cells control=100): 33
CXCL8 expression (qPCR) ([1]; young cells control=100): 729
DSG expression (qPCR) ([1]; young cells control=100): 1
FLG expression (qPCR) ([1]; young cells control=100): 9
HAS3 expression (qPCR) ([1]; young cells control=100): 357
IVL expression (qPCR) ([1]; young cells control=100): 120
KRT10 expression (qPCR) ([1]; young cells control=100): 2
LOR expression (qPCR) ([1]; young cells control=100): 1
MKI67 expression (qPCR) ([1]; young cells control=100): 95
S100A7 expression (qPCR) ([1]; young cells control=100): 564
S100A8 expression (qPCR) ([1]; young cells control=100): 256
S100A9 expression (qPCR) ([1]; young cells control=100): 397
SOD1 expression (qPCR) ([1]; young cells control=100): 95
TGM1 expression (qPCR) ([1]; young cells control=100): 47
Ability to reduce the MMP-1 level (%) (MMP-1): +33%
MMP-1 content (ng/mg proteins) (MMP-1; 48 hours): 46 ng/mg proteins
Fiber Quality, change compared to placebo ([2]; D 21): +3%
Fiber Quality, change compared to placebo ([2]; D 21, listed as retinol): +3%
Fiber Quality, change compared to placebo ([2]; D 42): +12%
Appearance of skin redness, parameter a* (in words) ([3]; 0.075% of retinol, from 21 days of treatment): significantly increases parameter a*
Parameter a* (skin redness), change compared to placebo ([3]; D 21): +5%
Parameter a* (skin redness), change compared to placebo ([3]; D 42): +5%
ACAN: Efficacy of retinol/older control (%) [4]: −74%
AQP3: Efficacy of retinol/older control (%) [4]: +30%
BGN: Efficacy of retinol/older control (%) [4]: +24%
COL1A1: Efficacy of retinol/older control (%) [4]: +25%
COL3A1: Efficacy of retinol/older control (%) [4]: +67%
CXCL8: Efficacy of retinol/older control (%) [4]: +282%
DCN: Efficacy of retinol/older control (%) [4]: +7%
ELN: Efficacy of retinol/older control (%) [4]: +5%
FBN1: Efficacy of retinol/older control (%) [4]: −1%
HSPG2: Efficacy of retinol/older control (%) [4]: +3%
IL1: Efficacy of retinol/older control (%) [4]: +151%
LUM: Efficacy of retinol/older control (%) [4]: −3%
MMP1: Efficacy of retinol/older control (%) [4]: −24%
POSTN: Efficacy of retinol/older control (%) [4]: +24%
TGFβ1: Efficacy of retinol/older control (%) [4]: +8%
VEGFA: Efficacy of retinol/older control (%) [4]: +2%
ACAN expression (qPCR) ([4]; young cells control=100): 10
AQP3 expression (qPCR) ([4]; young cells control=100): 73
BGN expression (qPCR) ([4]; young cells control=100): 78
COL1A1 expression (qPCR) ([4]; young cells control=100): 79
COL3A1 expression (qPCR) ([4]; young cells control=100): 72
CXCL8 expression (qPCR) ([4]; young cells control=100): 803
DCN expression (qPCR) ([4]; young cells control=100): 89
ELN expression (qPCR) ([4]; young cells control=100): 63
FBN1 expression (qPCR) ([4]; young cells control=100): 90
HSPG2 expression (qPCR) ([4]; young cells control=100): 90
IL1 expression (qPCR) ([4]; young cells control=100): 567
LUM expression (qPCR) ([4]; young cells control=100): 87
MMP1 expression (qPCR) ([4]; young cells control=100): 164
POSTN expression (qPCR) ([4]; young cells control=100): 56
TGFβ1 expression (qPCR) ([4]; young cells control=100): 103
VEGFA expression (qPCR) ([4]; young cells control=100): 93
Sinuosity of the DEJ, change compared to placebo ([5]; D 21): +2%
Sinuosity of the DEJ, change compared to placebo ([5]; D 21, listed as retinol): +2%
Sinuosity of the DEJ, change compared to placebo ([5]; D 42): +3%
Sinuosity of the DEJ, change compared to placebo ([5]; D 42, listed as retinol): +3%
Synthesis of the collagen I network (×10^3 AU) (collagen I): 174 ×10^3 AU
Negative Volume (crow's feet), change compared to placebo ([6]; D 21): −12%
Parameter Sa (roughness, crow's feet), change compared to placebo ([6]; D 21): −5%
Negative Volume (crow's feet), change compared to placebo ([6]; D 42): −20%
Parameter Sa (roughness, crow's feet), change compared to placebo ([6]; D 42): −7%
Negative Volume (crow's feet), change compared to placebo ([6]; D 42, listed as retinol): −20%
Ability to restore Ki-67 synthesis (%) (Ki-67): +71%
Ki-67-positive cells (%) (Ki-67; 48 hours): 23%
Ability to restore the thickness of the epidermis (%) [7]: +94%
Measurement of the thickness of the epidermis (μm) ([7]; 48 hours): 59 μm
